PubChem BioAssay AID1963973 (Molecular Pharmacology Branch, DTP, NCI, 2024)
pIC50: −log10 of the molar value.

Tested on: 883617-216-R-J1-PDC tumor spheroids, viability
Experiment: Anticancer human tumor 883617-216-R-J1-PDC patient-derived bladder carcinoma cell line growth inhibition [PI3K]
Conditions: spheroids with HUVEC and MSC; for pIC50: curve of first compound; for viability, T/C: stronger effect = lower value
Outline: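 High-throughput combination screen: PI3K inhibitors crossed with targeted small molecules on complex spheroids of tumor cells, HUVEC and MSCs at 37 degrees C, 5% CO2. Top concentration was at or near clinical Cmax (otherwise 10 microM), with half-log decrements.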

[1] = second compound 0.0316 µM, first compound 0.0316 µM
[2] = second compound 0.0316 µM, first compound 0.1 µM
[3] = second compound 0.0316 µM, first compound 0.316 µM
[4] = second compound 0.0316 µM, first compound 1 µM
[5] = second compound 0.0316 µM, first compound 3.16 µM
[6] = second compound 0.0316 µM, first compound 10 µM
[7] = second compound 0.1 µM, first compound 0.0316 µM
[8] = second compound 0.1 µM, first compound 0.1 µM
[9] = second compound 0.1 µM, first compound 0.316 µM
[10] = second compound 0.1 µM, first compound 1 µM
[11] = second compound 0.1 µM, first compound 3.16 µM
[12] = second compound 0.1 µM, first compound 10 µM
[13] = second compound 0.316 µM, first compound 0.0316 µM
[14] = second compound 0.316 µM, first compound 0.1 µM
[15] = second compound 0.316 µM, first compound 0.316 µM
[16] = second compound 0.316 µM, first compound 1 µM
[17] = second compound 0.316 µM, first compound 3.16 µM
[18] = second compound 0.316 µM, first compound 10 µM
[19] = second compound 1 µM, first compound 0.0316 µM
[20] = second compound 1 µM, first compound 0.1 µM
[21] = second compound 1 µM, first compound 0.316 µM
[22] = second compound 1 µM, first compound 1 µM
[23] = second compound 1 µM, first compound 3.16 µM
[24] = second compound 1 µM, first compound 10 µM
[25] = second compound 3.16 µM, first compound 0.0316 µM
[26] = second compound 3.16 µM, first compound 0.1 µM
[27] = second compound 3.16 µM, first compound 0.316 µM
[28] = second compound 3.16 µM, first compound 1 µM
[29] = second compound 3.16 µM, first compound 3.16 µM
[30] = second compound 3.16 µM, first compound 10 µM
[31] = second compound 10 µM, first compound 0.0316 µM
[32] = second compound 10 µM, first compound 0.1 µM
[33] = second compound 10 µM, first compound 0.316 µM
[34] = second compound 10 µM, first compound 1 µM
[35] = second compound 10 µM, first compound 3.16 µM
[36] = second compound 10 µM, first compound 10 µM
[37] = second compound 0.00316 µM, first compound 0.0316 µM
[38] = second compound 0.00316 µM, first compound 0.1 µM
[39] = second compound 0.00316 µM, first compound 0.316 µM
[40] = second compound 0.00316 µM, first compound 1 µM
[41] = second compound 0.00316 µM, first compound 3.16 µM
[42] = second compound 0.00316 µM, first compound 10 µM
[43] = second compound 0.01 µM, first compound 0.0316 µM
[44] = second compound 0.01 µM, first compound 0.1 µM
[45] = second compound 0.01 µM, first compound 0.316 µM
[46] = second compound 0.01 µM, first compound 1 µM
[47] = second compound 0.01 µM, first compound 3.16 µM
[48] = second compound 0.01 µM, first compound 10 µM
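Note: spheroids exposed to agents for 7 days before the viability read.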

CCCS(=O)(=O)Nc1ccc(F)c(C(=O)c2c[nH]c3ncc(-c4ccc(Cl)cc4)cc23)c1F + CC(Nc1ncnc2nc[nH]c12)c1cc2cccc(Cl)c2c(=O)n1-c1ccccc1 was tested, and the pIC50 (second compound 0.0316 µM) was 5.38, the pIC50 (second compound 0.1 µM) was 5.33 and the pIC50 (second compound 0.316 µM) was 5.34. For the same molecule, the pIC50 (second compound 1 µM) was 5.41, the pIC50 (second compound 3.16 µM) was 5.44 and the pIC50 (second compound 10 µM) was 5.77. It also gave a viability, T/C [1] of 94.8%, a viability, T/C [2] of 92.3% and a viability, T/C [3] of 97.1%. It also gave a viability, T/C [4] of 102%, a viability, T/C [5] of 63.4% and a viability, T/C [6] of 9.37%. For the same molecule, the viability, T/C [7] was 85%, the viability, T/C [8] was 91.8% and the viability, T/C [9] was 114%. For the same molecule, the viability, T/C [10] was 85.1%, the viability, T/C [11] was 70.5% and the viability, T/C [12] was 10.7%. For the same molecule, the viability, T/C [13] was 91.8%, the viability, T/C [14] was 91.1% and the viability, T/C [15] was 95%. For the same molecule, the viability, T/C [16] was 97.1%, the viability, T/C [17] was 67.7% and the viability, T/C [18] was 11.3%. It also gave a viability, T/C [19] of 99.9%, a viability, T/C [20] of 89% and a viability, T/C [21] of 87.9%. The viability, T/C [22] was 72.4%, the viability, T/C [23] was 65.1% and the viability, T/C [24] was 9.68%. It also gave a viability, T/C [25] of 75.3%, a viability, T/C [26] of 75.7% and a viability, T/C [27] of 72.1%. The viability, T/C [28] was 71.5%, the viability, T/C [29] was 55.2% and the viability, T/C [30] was 10.6%. The viability, T/C [31] was 52.9%, the viability, T/C [32] was 57.4% and the viability, T/C [33] was 55.3%. For the same molecule, the viability, T/C [34] was 66.5%, the viability, T/C [35] was 40.5% and the viability, T/C [36] was 11.8%.
In the case of CC(Cn1ccc(-c2ccc(C#N)c(Cl)c2)n1)NC(=O)c1cc(C(C)O)[nH]n1 (stereo not drawn) + CC(Nc1ccc2c(c1)OCCn1cc(N3C(=O)OCC3C(F)F)nc1-2)C(N)=O, the pIC50 (second compound 0.00316 µM) was less than 5.00, the pIC50 (second compound 0.01 µM) was less than 5.00 and the pIC50 (second compound 0.0316 µM) was less than 5.00. The pIC50 (second compound 0.1 µM) was greater than 7.50, the pIC50 (second compound 0.316 µM) was greater than 7.50 and the pIC50 (second compound 1 µM) was greater than 7.50. It also gave a viability, T/C [37] of 86.4%, a viability, T/C [38] of 85.9% and a viability, T/C [39] of 84.1%. The viability, T/C [40] was 80.4%, the viability, T/C [41] was 90.8% and the viability, T/C [42] was 73.1%. The viability, T/C [43] was 84%, the viability, T/C [44] was 74.7% and the viability, T/C [45] was 80.1%. The viability, T/C [46] was 84%, the viability, T/C [47] was 90.5% and the viability, T/C [48] was 86.5%. It also gave a viability, T/C [1] of 64.2%, a viability, T/C [2] of 79.4% and a viability, T/C [3] of 79.1%. The viability, T/C [4] was 80.3%, the viability, T/C [5] was 74.8% and the viability, T/C [6] was 67.4%. It also gave a viability, T/C [7] of 46.6%, a viability, T/C [8] of 49.3% and a viability, T/C [9] of 55.1%. The viability, T/C [10] was 48.9%, the viability, T/C [11] was 43.7% and the viability, T/C [12] was 44.9%. The viability, T/C [13] was 25.3%, the viability, T/C [14] was 27.9% and the viability, T/C [15] was 27.9%. For the same molecule, the viability, T/C [16] was 26.9%, the viability, T/C [17] was 26.8% and the viability, T/C [18] was 23.2%. The viability, T/C [19] was 15.8%, the viability, T/C [20] was 15% and the viability, T/C [21] was 17%. For the same molecule, the viability, T/C [22] was 14.9%, the viability, T/C [23] was 17.4% and the viability, T/C [24] was 17.3%.
For C#Cc1c(F)ccc2cc(O)cc(-c3ncc4c(N5CC6CCC(C5)N6)nc(OCC56CCCN5CC(F)C6)nc4c3F)c12 (stereo not drawn) + CC(Nc1ncnc2nc[nH]c12)c1cc2cccc(Cl)c2c(=O)n1-c1ccccc1, the pIC50 (second compound 0.0316 µM) was less than 5.00, the pIC50 (second compound 0.1 µM) was less than 5.00 and the pIC50 (second compound 0.316 µM) was less than 5.00. The pIC50 (second compound 1 µM) was less than 5.00, the pIC50 (second compound 3.16 µM) was 5.22 and the pIC50 (second compound 10 µM) was 6.92. For the same molecule, the viability, T/C [1] was 91.5%, the viability, T/C [2] was 109% and the viability, T/C [3] was 84.2%. For the same molecule, the viability, T/C [4] was 94.8%, the viability, T/C [5] was 78% and the viability, T/C [6] was 61.1%. It also gave a viability, T/C [7] of 101%, a viability, T/C [8] of 96.7% and a viability, T/C [9] of 95.1%. The viability, T/C [10] was 84.9%, the viability, T/C [11] was 94.8% and the viability, T/C [12] was 56.5%. It also gave a viability, T/C [13] of 77.6%, a viability, T/C [14] of 86.1% and a viability, T/C [15] of 78.5%. It also gave a viability, T/C [16] of 94.3%, a viability, T/C [17] of 76.4% and a viability, T/C [18] of 54.5%. The viability, T/C [19] was 84.1%, the viability, T/C [20] was 81.9% and the viability, T/C [21] was 74.2%. The viability, T/C [22] was 73%, the viability, T/C [23] was 69.9% and the viability, T/C [24] was 49.7%. The viability, T/C [25] was 77.6%, the viability, T/C [26] was 70.4% and the viability, T/C [27] was 60.3%. The viability, T/C [28] was 70.7%, the viability, T/C [29] was 55.1% and the viability, T/C [30] was 44.3%. It also gave a viability, T/C [31] of 52.1%, a viability, T/C [32] of 56.4% and a viability, T/C [33] of 39.1%. For the same molecule, the viability, T/C [34] was 45.1%, the viability, T/C [35] was 33.2% and the viability, T/C [36] was 26.6%.
In the case of Cn1nccc1Nc1nccc(-c2ccn(C(CO)c3ccc(Cl)c(F)c3)c(=O)c2)n1 (stereo not drawn) + COc1c(OCCCN2CCOCC2)ccc2c3n(c(=NC(=O)c4cnc(N)nc4)nc12)CCN3, the pIC50 (second compound 0.00316 µM) was 5.48, the pIC50 (second compound 0.01 µM) was 6.47 and the pIC50 (second compound 0.0316 µM) was greater than 7.50. It also gave a pIC50 (second compound 0.1 µM) greater than 7.50, a pIC50 (second compound 0.316 µM) greater than 7.50 and a pIC50 (second compound 1 µM) greater than 7.50. The viability, T/C [37] was 83.4%, the viability, T/C [38] was 76.7% and the viability, T/C [39] was 64.6%. It also gave a viability, T/C [40] of 65%, a viability, T/C [41] of 47.9% and a viability, T/C [42] of 40.4%. It also gave a viability, T/C [43] of 59.4%, a viability, T/C [44] of 59.5% and a viability, T/C [45] of 51%. The viability, T/C [46] was 40.4%, the viability, T/C [47] was 39.9% and the viability, T/C [48] was 33.8%. For the same molecule, the viability, T/C [1] was 39.3%, the viability, T/C [2] was 33.5% and the viability, T/C [3] was 26.7%. The viability, T/C [4] was 27.8%, the viability, T/C [5] was 21.5% and the viability, T/C [6] was 14.3%. The viability, T/C [7] was 12.8%, the viability, T/C [8] was 12.8% and the viability, T/C [9] was 10.5%. For the same molecule, the viability, T/C [10] was 7.47%, the viability, T/C [11] was 6.96% and the viability, T/C [12] was 6.94%. It also gave a viability, T/C [13] of 5.61%, a viability, T/C [14] of 3.51% and a viability, T/C [15] of 4.13%. It also gave a viability, T/C [16] of 1.85%, a viability, T/C [17] of 1.07% and a viability, T/C [18] of 1.21%. The viability, T/C [19] was 2.27%, the viability, T/C [20] was 1.46% and the viability, T/C [21] was 0.6%. For the same molecule, the viability, T/C [22] was 0.25%, the viability, T/C [23] was 0.12% and the viability, T/C [24] was 0.12%.
